Experimental data: US20100056431A1, “MEDICAL USES” (priority 2006, published 2010)
Entries after “also recorded” stand apart in the source; their conditions may differ.

Key:
HaCaT cells [1] = test: Pertussis toxin assay (LL-37 induced HaCaT cell proliferation); format: cell-based, human; conditions: pertussis toxin 20 ng/ml preincubated 24 h before LL-37 at 5 or 10 μg per ml, data not shown
Description: To assess the involvement of FPRL1 in mediating the stimulation of epithelial cell proliferation induced by hCAP18/LL-37, HaCaT cells were treated with the G-protein-coupled receptor inhibitor pertussis toxin. Cells were preincubated with pertussis toxin (Sigma-Aldrich, Switzerland) 24 h before the LL-37 treatment in a final toxin concentration of 20 ng/ml. Medium was changed 48 hours after cell seeding and the HaCaT cells were treated with 100 μl of medium (DMEM+5% FCS and PEST) containing synthetic biologically active LL-37 peptide at 5 or 10 μg per ml respectively. Cells treated with only DMEM+5% FCS and PEST served as control.

phosphorylated MAPK 1/2 = test: Heregulin-induced MAPK phosphorylation in ZR75-1 cells (Western blot); format: cell-based, human; conditions: ZR75-1 cells (LL-37 expressing), Heregulin 2 ng/ml, 20 min
Description: ZR75-1 cells were treated for 20 min with Heregulin (2 ng/ml), LL-25 or LL-37 or in combination as indicated. Protein extracts were analysed by Western blot analysis against phosphorylated MAPK.
ZR75-1 ells were grown in Optimem and 10% FCS, and plated in 12-well plates at 100 000 cells/well, corresponding 70% confluency. After reattachment, cells were starved for 48 hours in DMEM, no FCS. Test substrate dissolved in 50 μl PBS were added to the medium, and cells were incubated for 20 min. The stimulation was stopped by washing the cells with ice-cold PBS containing 1 mM NaF, 100 μM Na3VO4, and 2 mM PMSF, and then lysed in 300 μl SDS lysis buffer containing the inhibitors as above. Proteins were separated in an 8% gel, and blotted to nitrocellulose filters according to standard conditions. Filters were reversibly stained with 3% Ponceau S, blocked with 4% NFDM in TBS/0.1% Tween20, and incubated o.n. with the primary antibody. For detection of phosphorylated MAPK 1/2 (pThr 202/pTyr 204), a monoclonal antibody (Cell Signaling Inc) was used at 1/2000. […] The signal was captured in a CCD camera (Fuji, Tokyo, Japan) for 1 min, and evaluated by Image Gauge Software. For quantification, the signals were normalized against the Ponceau S staining that had been scanned in and quantified using the same software.

phosphorylated MAPK = test: Competitive inhibition of LL-37 on Heregulin-induced MAPK phosphorylation in MCF7 cells (Western blot); format: cell-based, human; conditions: Heregulin 2 ng/ml
Description: Heregulin (2 ng/ml) was added to the breast cancer line MCF7, which produces virtually no LL-37 on its own, together with LL-37 (2 μM) and LL-25 at concentrations as indicated. In the control experiments, the solvent (PBS), or LL-37, LL-25 or heregulin (HRG) were added as the only substrates. The quantitative evaluation of triplicate measurements is shown together with the Western blot of one of the triplicates.
ZR75-1 ells were grown in Optimem and 10% FCS, and plated in 12-well plates at 100 000 cells/well, corresponding 70% confluency. After reattachment, cells were starved for 48 hours in DMEM, no FCS. Test substrate dissolved in 50 μl PBS were added to the medium, and cells were incubated for 20 min. […] The signal was captured in a CCD camera (Fuji, Tokyo, Japan) for 1 min, and evaluated by Image Gauge Software. For quantification, the signals were normalized against the Ponceau S staining that had been scanned in and quantified using the same software.
In a further experiment, Heregulin (2 ng/ml) was added to the breast cancer line MCF7, which produces virtually no LL-37 on its own, together with exogenous LL-37 (2 μM) and LL-25 at concentrations as indicated. […] The quantitative evaluation of triplicate measurements is shown together with the Western blot of one of the triplicates.

[2] = Antibacterial assay of synthetic LL-37 peptide
Source text: LL-37 peptide was synthesised and purified by HPLC to a purity of 98% (PolyPeptide Laboratories A/S, Hillerød, Denmark). Biological activity of the peptide was confirmed in an antibacterial assay ^18.

HaCaT cells [3] = test: LL-37 peptide treatment of epithelial cells, proliferation by [3H]-Thymidine incorporation; format: cell-based, human; conditions: serum starved 72 hours, LL-37 10 μg/ml, DMEM+5% FCS, versus non treated control
Description: A spontaneously immortalised human keratinocyte cell line (HaCaT) ^19 was cultured in DMEM (Dulbecco's modified Eagle's medium, Gibco BRL, Life Technologies, Scotland) supplemented with 10% FCS (fetal calf serum, Hy-Clone, Boule Nordic AB Huddinge, Sweden) and antibiotics (PEST=penicillin 50 U/l and streptomycin […], Gibco BRL). Cells were harvested at 70% confluence and seeded in 96-well plates, 2000 cells in 100 μl medium (DMEM+10% FCS and PEST). After 12 hours, medium was changed to serum free medium (DMEM+PEST) and cells were synchronized in G0/G1 by serum starvation for 72 hours and then treated with 100 μl of medium (DMEM+5% FCS+PEST) containing synthetic biologically active LL-37 peptide at 10 μg per ml. Cells treated with only DMEM+5% FCS and PEST served as control. The experiments were performed in quadruplicates. Cell proliferation was evaluated by [^3H]-Thymidine incorporation. Cells were treated with 1 μCi/well of [^3H]-Thymidine (20.00 Ci/mmol, Perkin Elmer Life Sciences Inc. Boston, Mass.) during 12 hours and harvested (Harvester 96, Tomtec, Orage, Conn.) onto a glass fiber filter (Wallac Oy Turku, Finland). The incorporation of [^3H]-Thymidine was determined using a liquid scintillation counter (Microbeta Pluss, Wallac Sveriges AB). The experiment was repeated twice in 6 replicates.

ERK1/2 = test: Assay of phosphorylated ERK1/2 in LL-37 treated HaCaT cells (Western blot); format: cell-based, human; conditions: LL-37 10 μg/ml, 48 hours, 1% or 5% FCS
Description: HaCaT cells were seeded at 10% confluence and kept in DMEM with 0.2% FCS for 36 hours. For the next 48 hours, cells were cultured in DMEM with 1% or 5% FCS respectively, and in presence or absence of LL-37 at 10 μg/ml, with daily changes of medium. EGF at 10 ng/ml served as positive control. The expression of phosphorylated ERK 1/2 was evaluated by Western blot analysis with a mouse monoclonal antibody (Cell Signaling Technology, Beverly Mass.).

pertussis toxin
suppression of LL-37 stimulated proliferation by pertussis toxin pretreatment (HaCaT cells [1]): approximately 50%

LLGDFFRKSKEKIGKEFKRIVQRIK (listed as Homo sapiens) [LL-25, N-terminal 25 amino acids of the C-terminal LL-37 peptide derived from human cathelicidin antimicrobial protein hCAP18]
effect on MAPK phosphorylation through Heregulin (phosphorylated MAPK 1/2): inhibits MAPK phosphorylation | blocking of the endogenous LL-37 contribution to MAPK activation through HRG (phosphorylated MAPK): can significantly be blocked by LL-25 | inhibition of LL-37 on Heregulin-induced MAPK phosphorylation (phosphorylated MAPK; exogenous LL-37 2 μM, LL-25 at varied concentrations): competitive and highly efficient inhibitor to LL-37, even at 10% of the concentration of LL-37

LLGDFFRKSKEKIGKEFKRIVQRIKDFLRNLVPRTES (listed as Homo sapiens) [LL-37, C-terminal peptide of human cathelicidin antimicrobial protein hCAP18; synthesised, HPLC purity 98%]
biological activity in antibacterial assay [2]: confirmed | cell proliferation ([3H]-Thymidine incorporation) (HaCaT cells [3]): significantly increased cell proliferation; also recorded: significant increase in cell proliferation | activation of ERK1/2 (phosphorylated ERK1/2) (ERK1/2): no significant activation of ERK1/2
